Experimental data reported in PubChem BioAssay (NCI).
Where “and” joins values, the source holds several entries; their conditions need not be identical. Identical values can stand only once.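 Cultured in 96-well plates, cells were exposed to test compound for 48 hours across five concentrations. GI50 is the concentration that inhibits growth by half. TGI denotes the concentration required for complete inhibition of growth.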

Assays:
Assay in all cases: NCI tumour cell line growth inhibition, 48 h
[1] = system: M19-MEL melanoma
[2] = system: CAKI-1 renal
[3] = system: LOX IMVI melanoma
[4] = system: HCT-15 colon
[5] = system: NCI-H226 lung
[6] = system: MALME-3M melanoma
[7] = system: HOP-92 NSCLC
[8] = system: HCC-2998 colon
[9] = system: SNB-78 CNS
[10] = system: T-47D breast

Row | SMILES | TGI [1] | TGI [2] | TGI [3] | TGI [4] | TGI [5] | TGI [6] | TGI [7] | TGI [8] | TGI [9] | GI50 [5] | GI50 [2] | GI50 [6] | GI50 [7] | GI50 [3] | GI50 [8] | GI50 [10] | TGI [10] | GI50 [4]
1 | Cc1nc2ccccc2c(=O)n1/N=C(\N=Nc1cc(Cl)ccc1Cl)c1ccc(N(C)C)cc1 | > 100 µM | 79.8 µM | > 100 µM | > 100 µM |  |  |  |  |  |  |  |  |  |  |  |  |  | 
2 | Nc1ncc(CN2CCCC2)c(-c2ccccc2O)n1 | > 750 µM | > 750 µM | > 750 µM | > 750 µM | > 750 µM | > 750 µM | > 750 µM | > 750 µM |  |  |  |  |  |  |  |  |  | 
3 | CC(C)(c1ccc(C=O)o1)c1ccc(C(C)(C)c2ccc(C=O)o2)o1 |  | > 100 µM | > 100 µM |  | > 100 µM | > 100 µM | > 100 µM | > 100 µM | > 100 µM |  |  |  |  |  |  |  |  | 
4 | O=C1CCNC/C1=C\c1ccccc1 | 39.3 µM | > 100 µM | 35.5 µM | 50.1 µM | 60.8 µM |  |  | 42.8 µM | > 100 µM |  |  |  |  |  |  |  |  | 
5 | C=C(CN1CCN(c2cc(C(F)(F)F)cc(C(F)(F)F)c2)CC1)c1ccc(C(=O)Nc2ccccc2N)cc1 |  | 42.3 µM | > 100 µM | > 100 µM | > 100 µM | 47.9 µM | 7.45 µM | 26.4 µM |  | 9.89 µM | 2.81 µM | 13.8 µM | 1.88 µM | 2.34 µM | 4.28 µM | 8.97 µM | > 100 µM | 3.96 µM
6 | COc1cccc(/C=C\C(=O)c2ccccc2)c1 |  | 24.8 µM | 7.38 µM | 10.1 µM | 32.9 µM | 31.4 µM | 26.2 µM | 25.7 µM |  | 16.6 µM | 9.66 µM | 14.3 µM | 6.46 µM | 2.42 µM | 8.72 µM | 9.72 µM | 41.3 µM | 2.4 µM
7 | CCNC(=O)O/N=C1\CCC2[C@@H]3CC=C4C[C@@H](OC(=O)NCC)CC[C@]4(C)C3CC[C@]12C (stereo not given in full) | 4.79 µM |  | 4.64 µM | 12.5 µM |  | 1.51 µM | 13.3 µM | 17.7 µM |  |  |  |  |  |  |  |  |  | 
8 | N#Cc1c(N)oc2cc3c(C#N)c(N)oc3cc12 | > 100 µM | > 100 µM | > 100 µM | > 100 µM |  | > 100 µM | > 100 µM | > 100 µM |  |  |  |  |  |  |  |  |  | 
9 | CCOC(=O)C(Oc1ccc(OC)c2c1C(=O)CCC2)c1ccccc1 (stereo not given) | > 100 µM | > 100 µM | > 100 µM | > 100 µM |  | > 100 µM |  | > 100 µM | > 100 µM |  |  |  |  |  |  |  |  | 
10 | CCn1c(=O)nc2n(-c3ccc(SC)cc3)c3ccccc3nc-2c1=O | > 100 µM | > 100 µM |  | > 100 µM | > 100 µM | > 100 µM | > 100 µM | > 100 µM | > 100 µM |  |  |  |  |  |  |  |  | 
11 | CC[C@H](C)[C@H](NC(=O)CN(C)C)C(=O)N(C)[C@H](C[C@@H](OC(C)=O)c1nc(C(=O)NC23C4C5C2C2C3C4C52C(=O)OC)cs1)C(C)C (stereo not given in full) |  | > 33.2 µM | > 33.2 µM | > 33.2 µM | > 33.2 µM | > 33.2 µM | > 33.2 µM | > 33.2 µM |  | > 29 µM | 7.13 µM |  | > 33.2 µM | 0.321 µM | 0.631 µM | > 33.2 µM | > 33.2 µM | 1.04 µM
12 | COc1ccc(/C(=C(\c2ccccc2)[N+](=O)[O-])c2ccc(OCCN3CCCC3)cc2)cc1 |  | 9.87 µM | 6.73 µM | 4.19 µM | 18.2 µM | 3.43 µM | 12 µM | 15.5 µM |  | 4.37 µM | 2.68 µM | 1.57 µM | 2.25 µM | 2.05 µM | 4.16 µM | 1.06 µM | 15.2 µM | 1.49 µM
13 | CCOC(=O)C(=O)CC(=O)C(Br)C(Br)c1ccc(Cl)cc1 (stereo not given) | 52.4 µM | > 100 µM | 78.1 µM | > 100 µM |  | > 100 µM | 59.6 µM | > 100 µM | > 100 µM |  |  |  |  |  |  |  |  | 
14 | COc1cc(/C=N/NC(=O)c2cnn3c2NC(c2ccccc2)C3)ccc1OCc1ccccc1 (stereo not given) |  | 3.99 µM | 2.79 µM | 6.68 µM | 21.8 µM | 3.7 µM | 5.77 µM | 24.5 µM |  | 2.17 µM | 0.597 µM | 0.616 µM | 1.48 µM | 0.573 µM | 2.35 µM | 1.22 µM | > 37.5 µM | 0.461 µM
15 | CC1=C(C(=S)Nc2ccc(Cl)c(C(=O)OC(C)C)c2)SCCO1 |  | 48.5 µM | 28.8 µM | 44.9 µM | 44.6 µM | 36.9 µM | 38.5 µM | 31.2 µM |  |  |  |  |  |  |  |  | 51.7 µM | 
16 | CN(C)NC(=O)NC12CC3CC(CC(C3)C1)C2 | > 100 µM | > 100 µM | > 100 µM | > 100 µM | > 100 µM |  | > 100 µM |  | > 100 µM |  |  |  |  |  |  |  |  | 
17 | COc1cc(O)c(C(=O)C2Cc3ccccc32)c(OC)c1 (stereo not given) |  | 72.4 µM | > 100 µM | > 100 µM | 86 µM | > 100 µM | > 100 µM | > 100 µM | > 100 µM |  |  |  |  |  |  |  |  | 
18 | N/N=C1/C(=O)N(c2ccc(Cl)cc2)C(=O)C(=O)C1c1nc2ccccc2s1 (stereo not given) | > 100 µM | > 100 µM | > 100 µM | > 100 µM |  | > 100 µM | > 100 µM | > 100 µM | > 100 µM |  |  |  |  |  |  |  |  | 
19 | O=C(NOCCO)c1ccc2cncn2c1Nc1ccc(I)cc1F |  | > 100 µM | > 10 µM and 47.1 µM | > 100 µM | > 100 µM | 0.0186 µM and < 0.01 µM | 0.325 µM and 0.0811 µM |  |  | 4.86 µM and 7.37 µM | 0.111 µM and 0.292 µM | 0.00203 µM and < 0.01 µM | 0.0147 µM and 0.0103 µM | 0.0493 µM and 0.0635 µM | 0.00299 µM and < 0.01 µM | > 10 µM and 51.1 µM | > 100 µM | > 2.24 µM and 1.72 µM
20 | NN=C1/C(=C\c2ccccc2)CCC/C1=C/c1ccccc1 | > 100 µM |  | 54.3 µM | > 100 µM |  | 81.1 µM | 76.7 µM | > 100 µM | > 100 µM |  |  |  |  |  |  |  |  | 
21 | COc1cc(OC)c(/C=C/S(=O)(=O)Cc2ccc(OC)c(N)n2)c(OC)c1 |  | > 100 µM | > 100 µM | > 100 µM | > 100 µM | > 100 µM | > 100 µM | > 100 µM |  |  | < 0.01 µM | > 100 µM | 0.093 µM | < 0.01 µM | < 0.0193 µM | 57.3 µM | > 100 µM | < 0.01 µM
22 | COC1=CC(=O)C2(C=C1OC)OC[C@H]1Oc3c(ccc4c3C=CC(C)(C)O4)C(=O)[C@H]12 (stereo not given in full) | > 100 µM |  | > 100 µM |  |  | > 100 µM | 44.3 µM | > 100 µM | > 100 µM |  |  |  |  |  |  |  |  | 
